Results published in patent US20180303940A1, “LIPOSOME PRODUCTION USING ISOPROPANOL” (GLAXOSMITHKLINE BIOLOGICALS, S.A., priority 2011, published 2018).

Assay: Cholesterol solubility in solvents at saturation (dry residue weighed)
Format: physicochemical
Conditions: 50° C.
Method: 3 solvent compared: Ethanol , Isopropanol, Heptane
Cholesterol was progressively added to each solvent at 50° C. up to saturation of the solution
Once saturation is achieved, a sample of the solution is taken and the solvent is evaporated with a rotary evaporator and/or in an oven. Dry residue of cholesterol is weighed to determine the solubility value

CC(C)CCC[C@@H](C)[C@H]1CC[C@H]2[C@@H]3CC=C4C[C@@H](O)CC[C@]4(C)[C@H]3CC[C@]12C [cholesterol, (3β)-cholest-5-en-3-ol]
cholesterol solubility in ethanol (ethanol): 6.7% | cholesterol solubility in heptane (heptane): 4.3% | cholesterol solubility in isopropanol (isopropanol): 12.1%
